Experimental data as given in patent publication US9388215B2, “Compositions and methods of using islet neogenesis peptides and analogs thereof” (SHENZHEN HIGHTIDE BIOPHARMACEUTICAL, LTD., priority 2013, dated 2016).
One block for each substance: values may come before it. Ends that are not written are not given here.

How the values were obtained:
pancreatic islets = experiment: Glucose-stimulated insulin secretion (GSIS) of isolated islets; assay type: cell-based, rat; conditions: 12.0 mM glucose; 10 μg/mL peptide or 100 nM GLP-1; 60 min; FIG. 8
Protocol: The pancreases were procured from male adult Sprague-Dawley (SD) rats. After 7 days acclimation, the animals were sacrificed by cervical dislocation and the entire pancreas was removed and digested with collagenase to isolate islets. After digestion, islets were maintained at 37° C. in RPMI 1640 (Carlsbad Calif., USA) pH 7.4, containing 10% (v/v) fetal calf serum, 1% penicillin/streptomycin, and 10 mM glucose in a humid atmosphere (5% CO2/95% O2), without the addition of any compound (control), or with the addition of 100 nM glucagon like peptide-1 (GLP-1); or 10 μg/mL Peptide 1, Peptide 12, or Peptide 16, as summarized in Table 4 below. Cultured islets were rinsed in Krebs-Ringer bicarbonate buffer (KRB), pH 7.4, previously gassed with a mixture of CO2/O2 (5/95%), and pre-incubated in 1.0 ml of KRB containing 0.5% (w/v) BSA and 1.5 mM glucose at 37° C. for 45 min. After this period, groups of 5 islets were incubated in 0.6 ml KRB with the addition of 1.5 or 12.0 mM glucose, with or without the addition of peptides for 60 min. At the end of the incubation period, aliquots of the medium were collected for insulin quantitation.

[1] = Pharmacokinetics in mouse, subcutaneous bolus; assay type: in vivo; conditions: male, C57BL/6, mouse, in vivo, sc, 25 mg/kg
Protocol: (§1) After 7 days acclimation, male Sprague-Dawley (SD) rats weighing 210-250 g, or male C57BL/6 mice, weighing 19-24 g, in good health were used in the study. Peptide 1, Peptide 12 and Peptide 16 were dissolved in sterile normal saline and then they were injected via subcutaneous (sc) bolus or intravenous (iv) bolus at the dose level of 25 mg/kg. Three animals in each group were used for blood collection at the time point of 5 min, 15 min, 30 min, 1 h, 2 h, 4 h, 6 h, 8 h and 24 h post-dose. Blood samples (approximately 400 μL) were collected and placed into tubes containing EDTA-K2 and centrifuged at 8000 rpm for 6 minutes at 4° C. to separate plasma from the samples. The resulting plasma was stored frozen at −80° C. until being analyzed. Plasma concentrations of peptides were determined using tandem mass spectrometry (LC-MS/MS) analysis. A non-compartmental module of WinNonlin® Professional 5.2 (Pharsight; St. Louis Mo.), was used to calculate PK parameters. The abbreviation AUC(0-t) represents area under the curve from the time of dosing to the time of the last observation, the AUC(0-∞) represents area under the curve from the time of dosing to infinity, and the Cmax represents maximum concentration detected.

[2] = Pharmacokinetics in rat, subcutaneous bolus (Example VII); assay type: in vivo; conditions: male, Sprague-Dawley, rat, in vivo, sc, 25 mg/kg
Protocol: as §1

[3] = Pharmacokinetics in rat, intravenous bolus; assay type: in vivo; conditions: male, Sprague-Dawley, rat, in vivo, iv, 25 mg/kg
Protocol: as §1

normal C57BL/6J mice [4] = experiment: Induction of extra islet insulin positive β cell clusters (EIC) in normal C57BL/6J mice; assay type: in vivo, mouse; conditions: analog 5 mg/kg vs INGAP-PP 50 mg/kg, 10 days
Protocol: After a 1-week acclimation, female C57BL/6J mice were randomly divided into 6 groups (n=5 per group). The control group received 10 mL/kg sterile normal saline via subcutaneous injection for 10 consecutive days. The other five groups received INGAP-PP (Peptide 1) or INGAP-PP analogs Peptide 12, Peptide 16, Peptide 29 or Peptide 31 at a dose of 50 mg/kg or 5 mg/kg per day, respectively, for the same period. On day 11, the pancreas was removed from each animal, cleared of fat and lymph nodes, weighed, and fixed in 10% neutral buffered formalin (NBF) for no longer than 24 hours before processing for morphometric analysis.
Immunohistochemistry analysis was used to assess the islet neogenic activities of peptides by measuring the number and area of extra islet insulin positive β cell clusters (EIC) of pancreatic tissues harvested from each individual group post 10 day treatment. EIC is indicative of islet neogenesis, as previously described by Lipsett and Finegood (Diabetes 51:1834-1841 (2002)).

[5] = Pharmacokinetics in SD rats after single subcutaneous dose (Example X); assay type: in vivo, rat; conditions: male, Sprague-Dawley, rat, in vivo, sc, 25 mg/kg
Protocol: After 7 days acclimation, a total of 15 male Sprague-Dawley (SD) rats (body weight: 230 to 270 g) in good health from Sino-British SIPPR/BK Lab Animal Ltd, Shanghai, were used in the study. All peptides, Peptide 1, Peptide 12, Peptide 16, Peptide 29 or Peptide 31, were dissolved in sterile normal saline respectively to yield the desired final concentrations and were administered via single subcutaneous (sc) dose.
Three animals in each group were used for blood collection at the time point of 5 min, 15 min, 30 min, 1 h, 2 h, 4 h, 6 h, 8 h and 24 h post-dose. Blood samples (approximately 400 μL) were collected and placed into tubes containing EDTA-K2 (dipotassium ethylene diamine tetraacetic acid) and centrifuged at 8000 rpm for 6 minutes at 4° C. to separate plasma from the samples. The resulting plasma was stored frozen at −80° C. until being analyzed.
Plasma concentrations of peptides were determined using tandem mass spectrometry (LC-MS/MS) analysis. A non-compartmental module of WinNonlin® Professional 5.2 (Pharsight; St. Louis Mo.) was used to calculate PK parameters. AUC(0-t) represents area under the curve from the time of dosing to the time of the last observation, the AUC(0-∞) represents area under the curve from the time of dosing to infinity, and the Cmax represents maximum concentration detected.

[6] = Peptide concentration in plasma and pancreas 30 min post dose; assay type: in vivo, rat; conditions: male, Sprague-Dawley, rat, in vivo, sc, 25 mg/kg, Peptide concentration
Protocol: To further characterize the pharmacokinetic (PK) properties of peptides, peptide concentration in pancreas—the target organ, was determined 30 min post dose. Briefly, INGAP-PP (Peptide 1), Peptide 12, or Peptide 31 was dissolved in sterile normal saline and then was administered via subcutaneous (sc) bolus at the dose level of 25 mg/kg to male Sprague-Dawley (SD) rats. Five animals in each group were used for blood and pancreas collection at the time point of 30 min post-dose. Blood samples (approximately 400 μL) were collected and placed into tubes containing EDTA-K2 and centrifuged at 8000 rpm for 6 minutes at 4° C. to separate plasma from the samples. After blood extraction and animal sacrifice, the pancreas was removed immediately from each animal, cleared of fat and lymph nodes, weighed, and placed into 5 fold volume of ice cold sterile normal saline with protease inhibitor cocktail (Merck Millipore, catalogue #539137) to homogenize with a homogenizer.
The peptide concentration of the plasma and pancreatic homogenate was determined immediately using tandem mass spectrometry (LC-MS/MS) analysis and the results are presented in Table 8.

[7] = assay type: physicochemical; conditions: pH 7.4
Protocol: Peptide stability in buffers was tested for INGAP-PP and selected analogs. 10 mg/mL of Peptide 1, Peptide 12, Peptide 16, Peptide 29 or Peptide 31 was dissolved in isotonic buffers with pH ranging from 4.0 to 8.0. […] Peptide 12 and Peptide 29 were stable in an isotonic phosphate buffer (pH 7.4) for more than 90 days at 4° C. (there was no sign of degradation at 90 days sample check point), and 60 days at 25° C.

[8] = Peptide stability in rat plasma; assay type: in vitro ADME; conditions: 100 μg/mL, 37° C.; FIG. 12, 13
Protocol: (§2) The stability of peptides was also tested in rat, mouse and human plasma. Briefly, a certain amount of peptides and eucatropine powder (positive control) was accurately weighed. Test compounds were dissolved in 50% methanol-water solution and diluted to 20 mg/mL, and eucatropine was dissolved in dimethylsulfoxide (DMSO) and diluted to 10 mM, as a stock solution. Eucatropine stock solution was diluted to 0.2 mM with DMSO as a working solution. A stop reagent was prepared containing 200 ng/mL midazolam and tolbutamide in acetonitrile. A volume of 300 μL of stop solution was added to each well of a 96-well deep-well plate placed on ice beforehand.
(§3) For the stability studies, peptides and eucatropine were spiked into plasma respectively, mixed well, and then 100 μL of each mixture solution was transferred into the pre-cooled stop reagent as 0 time point sample. The remaining mixtures were incubated in a 37° C. water bath with shaking at 100 rpm (n=2). The final incubation concentration was 1 μM for eucatropine and 100 μg/mL for all test compounds.
(§4) At desired time points, 100 μL of incubation mixture was transferred to the stop reagent to precipitate proteins. Samples were vortexed and centrifuged at RCF 5000×g for 10 minutes, and supernatant was transferred to a test plate. The samples were analyzed by LC-MS/MS.
(§5) Slope was calculated by plotting the natural logarithm of the percentage of remaining amount of test compounds and time, and T1/2 was calculated in accordance with the following formula.
For stability in rat plasma, the incubation time was 0, 15, 30, 60 and 120 min for Peptide 1 and eucatropine, and 0, 15, 30, 60, 120, and 240 min for Peptide 12, Peptide 16, Peptide 29 and Peptide 31.
In another stability study in rat plasma, the incubation time was 0, 30, 60 120 and 240 min for Peptide 2, Peptide 52, Peptide 64 and eucatropine.

[9] = Peptide stability in mouse plasma; assay type: in vitro ADME; conditions: 100 μg/mL, 37° C.; FIG. 3, 5, 14
Protocol: as §2, with “in” for “in rat,”
as §3, with “[…]” for “1 μM”
as §4, §5
For stability in mouse plasma, the incubation time was 0, 5, 15, 30 and 60 min for Peptide 1 and eucatropine; 0, 15, 30, 60, 120, 240 and 480 min for Peptide 12, Peptide 16 and Peptide 29.
In another stability study in mouse plasma, the incubation time was 0, 30, 60 and 120 min for Peptide 2 and eucatropine; 0, 30, 60, 120, 240 and 960 min for Peptide 52 and Peptide 54.
as §2, §3
For stability in mouse plasma, the incubation time was 0, 15, 30, 60 and 120 min for Peptide 1 and eucatropine; 0, 15, 30, 60, 120, and 240 min for Peptide 31.

normal C57BL/6J mice [10] = experiment: Induction of small β-cell clusters in normal C57BL/6J mice (islet size distribution); assay type: in vivo, mouse; conditions: normal mice
Protocol: After a 1-week acclimation, C57BL/6J female mice were randomly divided into 4 groups. The two control groups received either 10 mL/kg sterile normal saline (n=4) or scrambled peptide (Peptide 3, 25 mg/kg) (n=5) via subcutaneous injection for 10 days. The other two groups received INGAP-PP (Peptide 1) or INGAP-PP analog Peptide 7 at a dose of 25 mg/kg per day respectively (n=7 per group) for the same period. Body weight and 6 hour fasting blood glucose were measured before treatment and after the last dosing of treatment. Plasma and pancreatic insulin were also measured at the end of the study. On day 11, the pancreas was removed from each animal, cleared of fat and lymph nodes, weighed, and fixed in 10% neutral buffered formalin (NBF) for no longer than 24 hours before processing for morphometric analysis.
Immunohistochemistry analysis was used to determine pancreatic islet size distribution.

- AUC(0-inf) [1]: 5.89 µg·h/mL
- AUC(0-t) [1]: 5.87 µg·h/mL
- Cmax [1]: 11.6 µg/mL
- AUC(0-inf) [2]: 8.48 µg·h/mL
- AUC(0-t) [2]: 8.42 µg·h/mL
- Cmax [2]: 14 µg/mL
- AUC(0-inf) [3]: 12.6 µg·h/mL
- AUC(0-t) [3]: 12.6 µg·h/mL
- Cmax [3]: 44.3 µg/mL
- AUC(0-inf) [5]: 11.2 ± 1.21 µg·h/mL
- AUC(0-t) [5]: 11.1 ± 1.37 µg·h/mL
- Cmax [5]: 21.4 ± 1.35 µg/mL
- level at 0.5 h ([6]; Pancreas): 0.877 ± 0.261 µg/mL
- level at 0.5 h ([6]; Plasma): 5.37 ± 0.981 µg/mL
- time stable in isotonic phosphate buffer (pH 7.4) at 4° C. [7]: more than 90 days
- time stable in isotonic phosphate buffer (pH 7.4) at 25° C. [7]: 60 days
Substance: Ac-IGLHDPSHGTLPAGS-OH [Peptide 12, Ac-IGLHDPSHGTLPAGS-OH]
- glucose-stimulated insulin release vs islets without peptide (pancreatic islets): released significantly more insulin than those cultured without the addition of peptides
- islet neogenesis efficacy relative to INGAP-PP (normal C57BL/6J mice [4]): comparable or improved efficacy was achieved at a dose one tenth of INGAP-PP

Substance: Ac-IGLHDPTQGTEPAGE-NH2 [Peptide 62, Ac-IGLHDPTQGTEPAGE-NH2]
- stability in rat plasma [8]: exhibited good stability in rat plasma and were significantly more stable than HIP

Substance: Ac-IGLHDPTQGTEPAGE-OH [Peptide 52, Ac-IGLHDPTQGTEPAGE-OH]
- stability in mouse plasma [9]: exhibited good stability in mouse plasma and were significantly more stable than HIP
- stability in rat plasma [8]: exhibited good stability in rat plasma and were significantly more stable than HIP

Substance: Ac-IGLHDPTQGTEPNGE-OH [Peptide 54, Ac-IGLHDPTQGTEPNGE-OH]
- stability in mouse plasma [9]: exhibited good stability in mouse plasma and were significantly more stable than HIP

Substance: GLP-1: Glucagon like peptide-1, 100 nM, included as a positive control in GSIS (HAEGTFTSDVSSYLEGQAAKEFIAWLVKGR; ends and bridges not checked; UniProt P01275 98-127, looked up) [reference compound]
- glucose-stimulated insulin release vs islets without peptide (pancreatic islets): released significantly more insulin than those cultured without the addition of peptides

Substance: H-SHPNGSGTIGLHDPL-OH [Peptide 3, H-SHPNGSGTIGLHDPL-OH]
- effect on body weight, blood glucose, plasma insulin, pancreas insulin, pancreas weight (normal C57BL/6J mice [10]; 25 mg/kg per day sc for 10 days, compared to saline group): did not affect body weight, blood glucose, plasma insulin, pancreas insulin, or pancreas weight
- all parameters measured, scrambled peptide versus normal saline (normal C57BL/6J mice [10]; 25 mg/kg, 10 days): no difference
